# Measurements: ChEMBL document CHEMBL1135076, “Leishmanicidal activity of some aliphatic diamines and amino-alcohols” (Bioorg Med Chem Lett, 2002)
# Columns and labels:
# Assay type in all cases: functional, organism-based
# Leishmania donovani [1] = assay: Tested in vitro for leishmanicidal activity against Leishmania donovani (PP75) at the concentration of 50 ug/mL;++ indicates 80-90% lysis of parasites
# Leishmania braziliensis [2] = assay: Tested in vitro for leishmanicidal activity against Leishmania brasiliensis (2903) at the concentration of 10 ug/mL;+ indicates Less than 70% lysis of parasites
# Leishmania braziliensis [3] = assay: Tested in vitro for leishmanicidal activity against Leishmania brasiliensis (2903) at the concentration of 50 ug/mL;++ indicates 80-90% lysis of parasites
# Leishmania donovani [4] = assay: In vitro for leishmanicidal activity against Leishmania donovani (PP75) at the concentration of 10 ug/mL.
# Leishmania donovani [5] = assay: In vitro for leishmanicidal activity against Leishmania donovani (PP75) at the concentration of 100 ug/mL.
# Leishmania donovani [6] = assay: Tested in vitro for leishmanicidal activity against Leishmania donovani (PP75) at the concentration of 25 ug/mL;+ indicates Less than 70% lysis of parasites
# Leishmania amazonensis [7] = assay: In vitro for leishmanicidal activity against Leishmania amazonensis (PH8) at the concentration of 100 ug/mL.
# Leishmania amazonensis [8] = assay: Tested in vitro for leishmanicidal activity against Leishmania amazonensis (PH8) at the concentration of 25 ug/mL; + indicates less than 70% lysis of parasites
# Leishmania amazonensis [9] = assay: Tested in vitro for leishmanicidal activity against Leishmania amazonensis (PH8) at the concentration of 50 ug/mL; ++ indicates 80-90% lysis of parasites
# Leishmania braziliensis [10] = assay: In vitro for leishmanicidal activity against Leishmania brasiliensis (2903) at the concentration of 100 ug/mL.
# Leishmania braziliensis [11] = assay: Tested in vitro for leishmanicidal activity against Leishmania brasiliensis (2903) at the concentration of 25 ug/mL;+ indicates Less than 70% lysis of parasites
# Leishmania amazonensis [12] = assay: In vitro for leishmanicidal activity against Leishmania amazonensis (PH8) at the concentration of 10 ug/mL.
# Leishmania braziliensis [13] = assay: In vitro for leishmanicidal activity against Leishmania brasiliensis (2903) at the concentration of 10 ug/mL.
# Leishmania braziliensis [14] = assay: Tested in vitro for leishmanicidal activity against Leishmania brasiliensis (2903) at the concentration of 100 ug/mL; + indicates Less than 70% lysis of parasites
# Leishmania braziliensis [15] = assay: In vitro for leishmanicidal activity against Leishmania brasiliensis (2903) at the concentration of 50 ug/mL.
# Leishmania donovani [16] = assay: Tested in vitro for leishmanicidal activity against Leishmania donovani (PP75) at the concentration of 10 ug/mL
# Leishmania donovani [17] = assay: Tested in vitro for leishmanicidal activity against Leishmania donovani (PP75) at the concentration of 100 ug/mL;+ indicates Less than 70% lysis of parasites
# Leishmania donovani [18] = assay: In vitro for leishmanicidal activity against Leishmania donovani (PP75) at the concentration of 25 ug/mL.
# Leishmania donovani [19] = assay: In vitro for leishmanicidal activity against Leishmania donovani (PP75) at the concentration of 50 ug/mL.
# Leishmania amazonensis [20] = assay: Tested in vitro for leishmanicidal activity against Leishmania amazonensis (PH8) at the concentration of 100 ug/mL; + indicates Less than 70% lysis of parasites
# Leishmania amazonensis [21] = assay: In vitro for leishmanicidal activity against Leishmania amazonensis (PH8) at 25 ug/mL; No lysis of parasites.
# Leishmania amazonensis [22] = assay: In vitro for leishmanicidal activity against Leishmania amazonensis (PH8) at the concentration of 50 ug/mL.
# Leishmania braziliensis [23] = assay: In vitro for leishmanicidal activity against Leishmania brasiliensis (2903) at the concentration of 25 ug/mL.
# Leishmania braziliensis [24] = assay: Tested in vitro for leishmanicidal activity against Leishmania brasiliensis (2903) at the concentration of 50 ug/mL;+ indicates Less than 70% lysis of parasites
# Leishmania donovani [25] = assay: Tested in vitro for leishmanicidal activity against Leishmania donovani (PP75) at the concentration of 50 ug/mL;+ indicates Less than 70% lysis of parasites
# Leishmania amazonensis [26] = assay: Tested in vitro for leishmanicidal activity against Leishmania amazonensis (PH8) at the concentration of 50 ug/mL; + indicates less than 70% lysis of parasites
# Leishmania braziliensis [27] = assay: Tested in vitro for leishmanicidal activity against Leishmania brasiliensis (2903) at the concentration of 10 ug/mL;++ indicates 80-90% lysis of parasites
# Leishmania donovani [28] = assay: Tested in vitro for leishmanicidal activity against Leishmania donovani (PP75) at the concentration of 10 ug/mL;++ indicates 80-90% lysis of parasites
# Leishmania amazonensis [29] = assay: Tested in vitro for leishmanicidal activity against Leishmania amazonensis (PH8) at the concentration of 10 ug/mL; ++ indicates 80-90% lysis of parasites
# Leishmania braziliensis [30] = assay: Tested in vitro for leishmanicidal activity against Leishmania brasiliensis (2903) at the concentration of 100 ug/mL;++ indicates 80-90% lysis of parasites
# Leishmania braziliensis [31] = assay: Tested in vitro for leishmanicidal activity against Leishmania brasiliensis (2903) at the concentration of 25 ug/mL;++ indicates 80-90% lysis of parasites
# Leishmania donovani [32] = assay: Tested in vitro for leishmanicidal activity against Leishmania donovani (PP75) at the concentration of 25 ug/mL;++ indicates 80-90% lysis of parasites
# Leishmania amazonensis [33] = assay: Tested in vitro for leishmanicidal activity against Leishmania amazonensis (PH8) at the concentration of 25 ug/mL; ++ indicates 80-90% lysis of parasites
# Leishmania amazonensis [34] = assay: Tested in vitro for leishmanicidal activity against Leishmania amazonensis (PH8) at the concentration of 100 ug/mL; + indicates less than 70% lysis of parasites
Compound,Activity (Leishmania donovani [4]),Activity (Leishmania donovani [5]),Activity (Leishmania donovani [6]),Activity (Leishmania amazonensis [7]),Activity (Leishmania amazonensis [8]),Activity (Leishmania braziliensis [10]),Activity (Leishmania amazonensis [12]),Activity (Leishmania braziliensis [13]),Activity (Leishmania braziliensis [14]),Activity (Leishmania braziliensis [15]),Activity (Leishmania donovani [16]),Activity (Leishmania donovani [17]),Activity (Leishmania donovani [18]),Activity (Leishmania donovani [19]),Activity (Leishmania amazonensis [21]),Activity (Leishmania amazonensis [22]),Activity (Leishmania braziliensis [23]),further results
CCCCCCCCCCCCCCC(N)CNCC (configuration not stated),80-90% lysis of parasites,+,80-90% lysis of parasites,+,80-90% lysis of parasites,+,80-90% lysis of parasites,,,,,,,,,,,Activity (Leishmania donovani [1]): 80-90% lysis of parasites; Activity (Leishmania braziliensis [2]): 80-90% lysis of parasites; Activity (Leishmania braziliensis [3]): 80-90% lysis of parasites; Activity (Leishmania amazonensis [9]): 80-90% lysis of parasites; Activity (Leishmania braziliensis [11]): 80-90% lysis of parasites
CCCCCCCCCCCCCCC(COCc1ccccc1)NC(=O)OC(C)(C)C (configuration not stated),,,,,,,Less than 70% lysis of parasites,Less than 70% lysis of parasites,Less than 70% lysis of parasites,Less than 70% lysis of parasites,Less than 70% lysis of parasites,Less than 70% lysis of parasites,Less than 70% lysis of parasites,Less than 70% lysis of parasites,Less than 70% lysis of parasites,Less than 70% lysis of parasites,Less than 70% lysis of parasites,Activity (Leishmania amazonensis [20]): Less than 70% lysis of parasites
CCCCCCCCCCCCCCC(N)CNCC(=O)OCC (configuration not stated),Less than 70% lysis of parasites,+,Less than 70% lysis of parasites,+,Less than 70% lysis of parasites,+,Less than 70% lysis of parasites,,,,,,,,,,,Activity (Leishmania braziliensis [2]): Less than 70% lysis of parasites; Activity (Leishmania braziliensis [24]): Less than 70% lysis of parasites; Activity (Leishmania donovani [25]): Less than 70% lysis of parasites; Activity (Leishmania amazonensis [26]): Less than 70% lysis of parasites; Activity (Leishmania braziliensis [11]): Less than 70% lysis of parasites
CCCCCCCCCCCCCCC(CN(CC)CC)NC(=O)OC(C)(C)C (configuration not stated),,+,,+,,+,,,,,,,,+,,+,,Activity (Leishmania braziliensis [27]): 80-90% lysis of parasites; Activity (Leishmania donovani [28]): 80-90% lysis of parasites; Activity (Leishmania amazonensis [29]): 80-90% lysis of parasites
CCCCCCCCCCCCCCC(CN(CC(=O)OCC)CC(=O)OCC)NC(=O)OC(C)(C)C (configuration not stated),,80-90% lysis of parasites,,80-90% lysis of parasites,,,80-90% lysis of parasites,80-90% lysis of parasites,,80-90% lysis of parasites,80-90% lysis of parasites,,80-90% lysis of parasites,80-90% lysis of parasites,80-90% lysis of parasites,80-90% lysis of parasites,80-90% lysis of parasites,Activity (Leishmania braziliensis [30]): 80-90% lysis of parasites
CCCCCCCCCCCCCCC(N)CNC(=O)CCCC(=O)O (configuration not stated),80-90% lysis of parasites,+,,+,,+,80-90% lysis of parasites,,,,,,,+,,+,,Activity (Leishmania braziliensis [2]): 80-90% lysis of parasites; Activity (Leishmania braziliensis [31]): 80-90% lysis of parasites; Activity (Leishmania donovani [32]): 80-90% lysis of parasites; Activity (Leishmania amazonensis [33]): 80-90% lysis of parasites
CCCCCCCCCCCCCCC(N)COCc1ccccc1 (configuration not stated),,,,,,,Less than 70% lysis of parasites,Less than 70% lysis of parasites,Less than 70% lysis of parasites,Less than 70% lysis of parasites,Less than 70% lysis of parasites,Less than 70% lysis of parasites,Less than 70% lysis of parasites,Less than 70% lysis of parasites,Less than 70% lysis of parasites,Less than 70% lysis of parasites,Less than 70% lysis of parasites,Activity (Leishmania amazonensis [20]): Less than 70% lysis of parasites
CCCCCCCCCCCCCCC(N)CNCC(=O)O (configuration not stated),,+,,80-90% lysis of parasites,,,80-90% lysis of parasites,80-90% lysis of parasites,,,80-90% lysis of parasites,,80-90% lysis of parasites,,80-90% lysis of parasites,,80-90% lysis of parasites,Activity (Leishmania braziliensis [24]): 80-90% lysis of parasites; Activity (Leishmania donovani [25]): 80-90% lysis of parasites; Activity (Leishmania amazonensis [26]): 80-90% lysis of parasites; Activity (Leishmania braziliensis [30]): 80-90% lysis of parasites
CCCCCCCCCCCCCCC(=O)NC(CO)CCCCCCCCCCCCCC (configuration not stated),,,,,,,Less than 70% lysis of parasites,Less than 70% lysis of parasites,Less than 70% lysis of parasites,Less than 70% lysis of parasites,Less than 70% lysis of parasites,Less than 70% lysis of parasites,Less than 70% lysis of parasites,Less than 70% lysis of parasites,Less than 70% lysis of parasites,Less than 70% lysis of parasites,Less than 70% lysis of parasites,Activity (Leishmania amazonensis [34]): Less than 70% lysis of parasites
CCCCCCCCCCCCCCC(=O)NC(CCCCCCCCCCCCCC)COC(=O)CCCCCC (configuration not stated),,,,,,,Less than 70% lysis of parasites,Less than 70% lysis of parasites,Less than 70% lysis of parasites,Less than 70% lysis of parasites,Less than 70% lysis of parasites,Less than 70% lysis of parasites,Less than 70% lysis of parasites,Less than 70% lysis of parasites,Less than 70% lysis of parasites,Less than 70% lysis of parasites,Less than 70% lysis of parasites,Activity (Leishmania amazonensis [34]): Less than 70% lysis of parasites
CCCCCCCCCCCCCCC(N)CN(CC(=O)O)CC(=O)O (configuration not stated),,+,80-90% lysis of parasites,+,80-90% lysis of parasites,+,80-90% lysis of parasites,80-90% lysis of parasites,,,80-90% lysis of parasites,,,,,,,Activity (Leishmania donovani [1]): 80-90% lysis of parasites; Activity (Leishmania braziliensis [3]): 80-90% lysis of parasites; Activity (Leishmania amazonensis [9]): 80-90% lysis of parasites; Activity (Leishmania braziliensis [11]): 80-90% lysis of parasites
CCCCCCCCCCCCCCC(CNCC)NC(=O)OC(C)(C)C (configuration not stated),80-90% lysis of parasites,80-90% lysis of parasites,80-90% lysis of parasites,+,80-90% lysis of parasites,+,80-90% lysis of parasites,,,,,,,+,,+,,Activity (Leishmania braziliensis [27]): 80-90% lysis of parasites
